Source: article PMC5025259 (ACS infectious diseases, 2016)

Columns and labels:
[1] = test system: bloodstream form (BSF) CA427 trypanosomes; test: Proliferation inhibition assay; assay type: cell-based, Trypanosoma brucei; conditions: axenic cultures of bloodstream trypanosomes, 48 h
[2] = test system: BSA endocytosis in bloodstream T. brucei; test: Endocytosis assay: BSA-A647 uptake by bloodstream trypanosomes; assay type: cell-based, Trypanosoma brucei; conditions: bulk-phase uptake
[3] = test system: Tf endocytosis in HeLa cells; test: HeLa cell endocytosis of transferrin; assay type: cell-based, human; conditions: each compound 10 μM, Tf-Alexa488 5 μg/mL, 15 min at 37 °C
[4] = target: T1, rTbGSK3β (Trypanosoma brucei brucei, UniProt Q388M1); test: biochemical
T1 sequence (Q388M1 1-352): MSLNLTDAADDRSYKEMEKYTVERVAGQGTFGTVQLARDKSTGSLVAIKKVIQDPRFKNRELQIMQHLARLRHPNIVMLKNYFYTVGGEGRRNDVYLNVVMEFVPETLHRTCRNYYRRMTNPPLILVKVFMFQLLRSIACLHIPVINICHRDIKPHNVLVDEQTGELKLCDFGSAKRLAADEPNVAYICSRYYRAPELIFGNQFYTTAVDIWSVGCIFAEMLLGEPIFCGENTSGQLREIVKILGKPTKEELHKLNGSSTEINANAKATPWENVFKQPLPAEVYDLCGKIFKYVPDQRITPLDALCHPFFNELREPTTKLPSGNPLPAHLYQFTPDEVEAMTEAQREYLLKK

[5] = test system: transferrin (Tf) endocytosis in bloodstream T. brucei; conditions: cited from earlier work
[6] = test system: transferrin (Tf) endocytosis in bloodstream T. brucei; assay type: cell-based, Trypanosoma brucei; conditions: Figure S1
[7] = test system: bloodstream form (BSF) CA427 trypanosomes; conditions: read-out: GI50 (concentration of drug that inhibits growth by 50%); trypanosome proliferation; cited from earlier work
[8] = test system: Tf endocytosis in TbGSK3β overexpression trypanosomes; test: Tf endocytosis in trypanosomes overexpressing TbGSK3β; assay type: cell-based, Trypanosoma brucei; conditions: clone 1, TWS119 10 μM, 3 h induction
[9] = test system: Hp-Hb endocytosis in bloodstream T. brucei; test: Endocytosis assay: Hp-Hb-A488 uptake by bloodstream trypanosomes; assay type: cell-based, Trypanosoma brucei; conditions: Hp-Hb 38 nM

Row | Structure (SMILES) | T. brucei GL50 [1] | Effect on BSA endocytosis [2] | Effect on Tf endocytosis in HeLa cells [3] | further results
1 | O=C1Nc2ccc3ncsc3c2/C1=C/Nc1ccc(S(=O)(=O)Nc2ccccn2)cc1 [GW8510] | 0.12 µM | decreased | Neither TbGSK3β inhibitor affected | 
2 | O=S(=O)(NCCNC/C=C/c1ccc(Br)cc1)c1cccc2cnccc12 [H-89] |  |  | decreased | 
3 | Cc1cc(Nc2cc(CN3CCOCC3)c3nc(C)c(Cc4ccc(Cl)cc4F)n3n2)n[nH]1 [LY2784544] | 1.0 µM |  |  | IC50 [4]: 0.6 ± 0.2 µM
4 | CS(=O)(=O)CCNCc1ccc(-c2ccc3ncnc(Nc4ccc(OCc5cccc(F)c5)c(Cl)c4)c3c2)o1 [Lapatinib] |  |  |  | Effect on Tf endocytosis in T. brucei ([5]; ref Guyett, P.J., et al., manuscript submitted): blocks
5 | C[C@@H](Nc1ncnc2[nH]c(-c3ccc(O)cc3)cc12)c1ccccc1 [PKI-166] |  | did not inhibit |  | Effect on Tf endocytosis [6]: did not inhibit; GI50 [7]: 5 µM; IC50 [4]: > 20 µM
6 | CNC(=O)c1cc(Oc2ccc(NC(=O)Nc3ccc(Cl)c(C(F)(F)F)c3)cc2)ccn1 [Sorafenib] | 3.1 µM |  |  | 
7 | Nc1cccc(-c2cc3c(Oc4cccc(O)c4)ncnc3[nH]2)c1 [TWS119] | 1.1 µM | did not decrease | Neither TbGSK3β inhibitor affected | Reduction of Tf endocytosis driven by TbGSK3β overexpression [8]: 300%; Effect on Hp-Hb endocytosis [9]: did not decrease
8 | N#C/C(=C\c1ccc(O)c(O)c1)C(N)=S [tyrphostin-A47] |  |  |  | Effect on Tf endocytosis in the parasite [5]: blocks
